Molecules are shown by their SMILES. Where a name gives a salt, the structure may show the parent alone. A value given as a limit tells only on which side of the number the result lay.

The target in this assay is T1, Nav1.7 (or SCN9A) channel (Homo sapiens, UniProt Q15858).
T1 construct: expressed in transfected cells
T1 sequence (Q15858 whole entry): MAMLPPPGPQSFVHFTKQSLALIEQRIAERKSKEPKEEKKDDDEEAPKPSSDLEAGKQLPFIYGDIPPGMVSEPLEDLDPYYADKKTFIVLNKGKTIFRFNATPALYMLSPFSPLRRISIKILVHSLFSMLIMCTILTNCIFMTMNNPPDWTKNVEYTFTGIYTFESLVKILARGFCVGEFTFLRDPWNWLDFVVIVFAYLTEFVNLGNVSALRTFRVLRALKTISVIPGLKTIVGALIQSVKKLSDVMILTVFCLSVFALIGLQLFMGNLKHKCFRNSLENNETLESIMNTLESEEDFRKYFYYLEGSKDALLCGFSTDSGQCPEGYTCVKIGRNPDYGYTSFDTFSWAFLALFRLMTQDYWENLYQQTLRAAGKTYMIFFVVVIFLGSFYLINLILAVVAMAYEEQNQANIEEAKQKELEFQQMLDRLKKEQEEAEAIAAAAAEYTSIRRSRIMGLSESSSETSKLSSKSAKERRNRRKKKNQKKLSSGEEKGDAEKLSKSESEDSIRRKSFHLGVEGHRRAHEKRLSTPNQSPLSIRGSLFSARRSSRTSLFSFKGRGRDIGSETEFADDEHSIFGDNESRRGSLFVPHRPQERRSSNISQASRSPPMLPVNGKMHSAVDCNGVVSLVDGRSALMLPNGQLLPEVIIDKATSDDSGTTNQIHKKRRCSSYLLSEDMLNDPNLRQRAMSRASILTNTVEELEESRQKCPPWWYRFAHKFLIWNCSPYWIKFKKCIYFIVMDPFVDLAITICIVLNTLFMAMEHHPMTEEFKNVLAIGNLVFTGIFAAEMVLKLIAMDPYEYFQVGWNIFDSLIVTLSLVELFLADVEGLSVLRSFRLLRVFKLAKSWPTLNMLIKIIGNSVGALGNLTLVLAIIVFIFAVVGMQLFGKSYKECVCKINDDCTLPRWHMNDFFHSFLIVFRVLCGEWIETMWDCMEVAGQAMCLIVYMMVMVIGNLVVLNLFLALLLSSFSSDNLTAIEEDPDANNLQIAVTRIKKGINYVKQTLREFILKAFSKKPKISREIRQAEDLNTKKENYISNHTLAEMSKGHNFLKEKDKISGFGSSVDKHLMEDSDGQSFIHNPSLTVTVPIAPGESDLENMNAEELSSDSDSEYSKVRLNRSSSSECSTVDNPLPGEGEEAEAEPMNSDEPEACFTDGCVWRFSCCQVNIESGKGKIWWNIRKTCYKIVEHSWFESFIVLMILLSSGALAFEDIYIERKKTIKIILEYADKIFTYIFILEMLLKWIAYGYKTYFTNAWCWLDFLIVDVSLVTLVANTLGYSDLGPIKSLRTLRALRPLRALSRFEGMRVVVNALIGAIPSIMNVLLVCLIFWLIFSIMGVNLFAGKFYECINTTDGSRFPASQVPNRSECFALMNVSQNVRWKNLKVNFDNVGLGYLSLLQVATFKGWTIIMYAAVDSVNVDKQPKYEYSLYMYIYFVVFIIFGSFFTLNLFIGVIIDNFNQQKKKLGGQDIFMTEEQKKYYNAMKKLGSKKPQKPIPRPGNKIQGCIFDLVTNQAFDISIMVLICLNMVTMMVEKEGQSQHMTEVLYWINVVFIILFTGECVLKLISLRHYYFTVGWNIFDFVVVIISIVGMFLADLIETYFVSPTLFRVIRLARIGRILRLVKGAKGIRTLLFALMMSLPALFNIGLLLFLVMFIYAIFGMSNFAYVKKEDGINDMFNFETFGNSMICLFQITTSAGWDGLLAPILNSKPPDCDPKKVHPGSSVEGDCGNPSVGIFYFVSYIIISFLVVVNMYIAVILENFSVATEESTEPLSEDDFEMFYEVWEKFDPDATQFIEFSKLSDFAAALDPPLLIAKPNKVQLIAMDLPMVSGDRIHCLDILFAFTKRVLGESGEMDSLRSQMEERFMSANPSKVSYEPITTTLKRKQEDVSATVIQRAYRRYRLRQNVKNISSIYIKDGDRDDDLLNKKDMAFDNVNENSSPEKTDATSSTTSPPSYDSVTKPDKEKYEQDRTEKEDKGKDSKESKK
As to the kind of experiment: Nav1.7 (hSCN9A) channel block, PatchXpress whole-cell electrophysiology. The class given is cell-based. Particulars: PatchXpress platform; HEK cells stably transfected with hSCN9A; estimated IC-50 calculated from single point % inhibition at V1/2; read-out: Nav1.7 EIC50. Here is the method:
The ability of the compounds of formula (I) to block the Nav1.7 (or SCN9A) channel were measured using the assay described below.
Human Embryonic Kidney (HEK) cells were transfected with an hSCN9A construct using lipofectamine reagent (Invitrogen), using standard techniques. Cells stably expressing the hSCN9A constructs were identified by their resistance to G-418 (400 μg/ml). Clones were screened for expression using the whole-cell voltage-clamp technique.
HEK cells stably transfected with hSCN9A were maintained in DMEM medium supplemented with 10% heat-inactivated fetal bovine serum and 400 μg/ml G-418 in an incubator at 37° C. with a humidified atmosphere of 10% CO2. For HTS, cells were harvested from flasks by trypsinization and replated in an appropriate multi-well plate (typically 96 or 384 wells/plate) such that confluence would be achieved within 24 hours of plating. For electrophysiological studies, cells were removed from the culture flask by brief trypsinization and re-plated at low density onto glass cover slips. Cells were typically used for electrophysiological experiments within 24 to 72 hours after plating.
Cover slips containing HEK cells expressing hSCN9A were placed in a bath on the stage of an inverted microscope and perfused (approximately 1 ml/minutes) with extracellular solution of the following composition: 138 mM NaCl, 2 mM CaCl2, 5.4 mM KCl, 1 mM MgCl2, 10 mM glucose, and 10 mM HEPES, pH 7.4, with NaOH. […] The osmolarity of the extracellular and intracellular solutions was 300 mOsm/kg and 295 mOsm/kg, respectively. All recordings were made at room temperature (22-24° C.) using AXOPATCH 200B amplifiers and PCLAMP software (Axon Instruments, Burlingame, Calif.).
hSCN9A currents in HEK cells were measured using the whole-cell configuration of the patch-clamp technique (Hamill et al., 1981). Uncompensated series resistance was typically 2 to 5 mega ohms and >85% series resistance compensation was routinely achieved. As a result, voltage errors were negligible and no correction was applied. Current records were acquired at 20 to 50 KHz and filtered at 5 to 10 KHz.
HEK cells stably transfected with hSCN9A were viewed under Hoffman contrast optics and placed in front of an array of flow pipes emitting either control or compound-containing extracellular solutions. All compounds were dissolved in dimethyl sulfoxide to make 10 mM stock solutions, which were then diluted into extracellular solution to attain the final concentrations desired. […] The voltage-dependence of inactivation was determined by applying a series of depolarizing prepulses (8 sec long in 10 mV increments) from a negative holding potential. The voltage was then immediately stepped to 0 mV to assess the magnitude of the sodium current. Currents elicited at 0 mV were plotted as a function of prepulse potential to allow estimation of the voltage at which 50% of the channels were inactivated (midpoint of inactivation or V1/2). Compounds were tested for their ability to inhibit hSCN9A sodium channels by activating the channel with a 20 msec voltage step to 0 mV following an 8 second conditioning prepulse to the empirically determined V1/2. Compound effect (% inhibition) was determined by difference in current amplitude before and after application of test compounds. […] Inhibition values <20% and >80% were excluded from the calculation.
Electrophysiological assays were conducted with PatchXpress 7000 hardware and associated software (Molecular Devices Corp). All assay buffers and solutions were identical to those used in conventional whole-cell voltage clamp experiments described above. hSCN9A cells were grown as above to 50%-80% confluency and harvested by trypsinization. Trypsinized cells were washed and resuspended in extracellular buffer at a concentration of 1×10^6 cells/ml. The onboard liquid handling facility of the PatchXpress was used for dispensing cells and application of test compounds. […]
For `CS(=O)(=O)NC(=O)c1cc(F)c(COc2cc(C(F)(F)F)nc(C(F)(F)F)c2)cc1F` [Example 61, 4-({[2,6-bis(trifluoromethyl)pyridin-4-yl]oxy}methyl)-2,5-difluoro-N-(methylsulfonyl)benzamide], the IC50 is 1.84 µM.
Take `CS(=O)(=O)NC(=O)c1ccc(COc2cc(C(F)(F)F)c(Cl)cn2)cc1` [Example 62, 4-({[5-Chloro-4-(trifluoromethyl)pyridin-2-yl]oxy}methyl)-N-(methylsulfonyl)benzamide]: the IC50 was 3.41 µM.
Take `CS(=O)(=O)NC(=O)c1ccc(COc2ccc(Cl)cn2)cc1` [Example 63, 4-{[(5-Chloropyridin-2-yl)oxy]methyl}-N-(methylsulfonyl)benzamide]: the IC50 is 6.6 µM.
`CS(=O)(=O)NC(=O)c1cc(F)c(OCc2ccc(Cl)cn2)cc1F` [Example 64, 4-[(5-Chloropyridin-2-yl)methoxy]-2,5-difluoro-N-(methylsulfonyl)benzamide diethylamine salt]: the IC50 is above 1 µM.

(Values after patent US9102621B2, “Acyl sulfonamide compounds” (Pfizer Limited, priority 2010, dated 2015).)
